Literature values as cited in patent US11793953B2, “Inhalers and related methods” (Norton (Waterford) Limited, priority 2017, dated 2023).

surface tension (as liquid at 25° C.): about 8 mN/m
vapor pressure (at 20° C.): 572 kpa
Compound: FCC(F)(F)F [HFA134a, 1,1,1,2-tetrafluoroethane]
